From patent US9545119B2, “Specific vanillyl lignans and use thereof as taste improvers” (SYMRISE AG, priority 2011, dated 2017)
Marks after values point to notes of the source that are not given here.

Key:
Assay type in all cases: in vivo
[1] = system: caffeine solution containing 500 ppm; assay: Bitterness reduction in a bitter substance solution (expert panel), caffeine; conditions: for Reduction in the bitterness impression: * = significant; for Bitterness impression (on scale of 1-10) b) with test substance: 25 ppm test substance + 500 ppm caffeine, scale 1 (not bitter) to 10 (extremely bitter), panel mean; for Effect on bitterness (in words): statement in the description referring to Example 1
From the text: (§1) In order to quantify a reduction in the bitterness impression in a sample, the bitterness of a caffeine solution containing 500 ppm was compared by a panel of experts, in each case with a sample containing 500 ppm caffeine and also the respectively given quantity of a substance to be assessed (with regard to the ability thereof to reduce bitterness), with assessment on a scale from 1 (not bitter) to 10 (extremely bitter). For the evaluation, i.e. the calculation of the reduction (in %) of the bitterness impression, in each case, the mean values of the estimates by the expert panel for the caffeine solution and the sample to be compared, which contained caffeine and a substance under assessment were used. In addition to caffeine, other bitter substances such as theobromine, naringin, quinine hydrochloride dihydrate and salicin were tested using the same method.

250 ppm salicin = assay: Bitterness reduction in a bitter substance solution (expert panel), salicin
From the text: as §1

[2] = system: 5 ppm quinine hydrochloride dihydrate; assay: Bitterness reduction in a bitter substance solution (expert panel), quinine hydrochloride dihydrate
From the text: as §1

100 ppm naringin = assay: Bitterness reduction in a bitter substance solution (expert panel), naringin; conditions: for Reduction in the bitterness impression: 25 ppm test substance + 100 ppm naringin vs naringin alone, * = significant; for Bitterness impression (on scale of 1-10) b) with test substance: 25 ppm test substance + 100 ppm naringin, scale 1-10
From the text: as §1

300 ppm theobromine = assay: Bitterness reduction in a bitter substance solution (expert panel), theobromine; conditions: for Reduction in the bitterness impression: 25 ppm test substance + 300 ppm theobromine vs theobromine alone; for Bitterness impression (on scale of 1-10) b) with test substance: 25 ppm test substance + 300 ppm theobromine, scale 1-10
From the text: as §1

[3] = system: 750 ppm epigallocatechin gallate (EGCG); assay: Bitterness and astringency reduction in a bitter substance solution over time (expert panel); conditions: 100 ppm test substance + 750 ppm EGCG; time 0 s
[4] = system: 750 ppm epigallocatechin gallate (EGCG); assay: as above; conditions: 100 ppm test substance + 750 ppm EGCG
From the text: In order to quantify the reduction in the bitterness or astringency impression in a sample over a particular period of time, the bitterness or astringency of a solution containing 750 ppm epigallocatechin gallate (EGCG) was compared by a panel of experts, in each case with a sample containing 750 ppm epigallocatechin gallate and also the respectively shown quantity of a substance to be assessed (with regard to the ability thereof to reduce bitterness and/or astringency), in this case matairesinol (Compound 1-(−)).
Assessment was carried out on a scale from 1 (not bitter) to 10 (extremely bitter) or 1 (not astringent) to 10 (extremely astringent). The assessment by the panelists was carried out at specified time points (10 seconds, 30 seconds, 50 seconds and 70 seconds after ingestion of the respective sample). The samples were assessed by the panellists one after another following neutralisation. For the evaluation, i.e. the calculation of the reduction (in %) of the bitterness impression or astringency impression, at each time point, the mean values of the estimates by the expert panel for the epigallocatechin gallate solution and the sample to be compared therewith which contained the epigallocatechin gallate and the substance under assessment (in this case: matairesinol (Compound 1-(−)) were used.

[5] = 25 ppm test substance + 500 ppm caffeine vs 500 ppm caffeine alone

For `COc1cc(C[C@H]2CO[C@H](c3ccc(O)c(OC)c3)[C@H]2CO)ccc1O` [(+)-lariciresinol (3-(+)), 4-[[(3R,4R,5S)-5-(4-hydroxy-3-methoxyphenyl)-4-(hydroxy-methyl)-oxolan-3-yl]methyl]-2-methoxyphenol], the “Reduction in the bitterness impression” value [1, 5] was 38.6%*, the “Bitterness impression (on scale of 1-10) b) with test substance” value (“Bitterness impression … with test substance” for short) [1] was 2.9 ± 1.41 and the “Reduction in the bitterness impression” value (250 ppm salicin; 25 ppm test substance + 250 ppm salicin vs salicin alone) was 17.1%. For the same compound, the “Bitterness impression … with test substance” value (250 ppm salicin; 25 ppm test substance + 250 ppm salicin, scale 1-10) was 5.7 ± 2.97, the “Reduction in the bitterness impression” value ([2]; 25 ppm test substance + 5 ppm quinine hydrochloride dihydrate vs quinine alone, * = significant) was 30.9%* and the “Bitterness impression … with test substance” value ([2]; 25 ppm test substance + 5 ppm quinine hydrochloride dihydrate, scale 1-10) was 2.5 ± 1.02. The “Reduction in the bitterness impression” value (100 ppm naringin) was 39.5%*, the “Bitterness impression … with test substance” value (100 ppm naringin) was 3.6 ± 1.75 and the “Reduction in the bitterness impression” value (300 ppm theobromine) was 10.7%. The “Bitterness impression … with test substance” value (300 ppm theobromine) was 3.7 ± 2.24.

With `COc1cc(C[C@H]2C(=O)OC[C@@H]2Cc2ccc(OC)c(OC)c2)ccc1O` [(−)-arctigenin (4), (3R,4R)-4-[(3,4-dimethoxyphenyl)methyl]-3-[(4-hydroxy-3-methoxy-phenyl)methyl]oxolan-2-one] the “Reduction in the bitterness impression” value [1, 5] was 11.5% and the “Bitterness impression … with test substance” value [1] was 2.8 ± 1.68.

For `COc1cc(C[C@@H](CO)[C@H](CO)Cc2ccc(O)c(OC)c2)ccc1O` [secoisolariciresinol, reference compound], the “Amplification of the bitterness impression (printed in column Reduction in the bitterness impression)” value ([1]; 25 ppm test substance + 500 ppm caffeine vs 500 ppm caffeine alone, comparative example) was 34%, the “Bitterness impression … with test substance” value [1] was 5.2 ± 2.6 and the “Effect on bitterness (in words)” value [1] was “amplifies the bitterness”. For the same compound, the “Effect on bitterness (in words)” value ([1]; listed as Secoisolariciresinol) was “capable of amplifying bitter taste impressions”.

With `COc1cc([C@@H]2c3cc(O)c(OC)cc3C[C@H]3C(=O)OC[C@@H]23)ccc1O` [(−)-α-conidendrin (6-(−)), (3aR,9R,9aS)-7-hydroxy-9-(4-hydroxy-3-methoxyphenyl)-6-methoxy-3a,4,9,9a-tetrahydro-1H-benzo[f][2]benzofuran-3-one] the “Reduction in the bitterness impression” value [1, 5] was 20.8% and the “Bitterness impression … with test substance” value [1] was 2.5 ± 0.94.

For `COc1cc(C2c3cc(O)c(OC)cc3CC(CO)C2CO)ccc1O` (single isomer, unassigned; (+)) [(+)-isolariciresinol (5-(+)), 1,2,3,4-tetrahydro-7-hydroxy-1-(4-hydroxy-3-methoxy-phenyl)-6-methoxy-2,3-naphthalenedimethanol], the “Reduction in the bitterness impression” value [1, 5] was 10.3% and the “Bitterness impression … with test substance” value [1] was 4.1 ± 2.21.

In the case of `COc1cc(C[C@H]2C(=O)OC[C@@H]2[C@H](O)c2ccc(O)c(OC)c2)ccc1O` [(−)-hydroxymatairesinol(2-(−)), (3R,4R)-4-[(S)-hydroxy-(4-hydroxy-3-methoxy-phenyl)methyl]-3-[(4-hydroxy-3-methoxyphenyl)methyl]oxolan-2-one], the “Reduction in the bitterness impression” value [1, 5] is reported as 41.9%* and the “Bitterness impression … with test substance” value [1] is reported as 2.6 ± 1.72.

For `COc1cc(C[C@H]2COC(=O)[C@@H]2Cc2ccc(O)c(OC)c2)ccc1O` [(−)-matairesinol (1-(−)), (3R,4R)-3,4-bis[(4-hydroxy-3-methoxyphenyl)methyl]oxolan-2-one], the “% Reduction in the astringency impression” value [3] was −11%, the “% reduction in the bitterness impression” value [3] was −15% and the “Reduction in the bitterness impression” value [1, 5] was 35.5%*. For the same compound, the “Bitterness impression … with test substance” value [1] was 2.7 ± 1.77, the “% Reduction in the astringency impression” value ([4]; time 10 s) was −10%* and the “% reduction in the bitterness impression” value ([4]; time 10 s) was −30%*. The “% Reduction in the astringency impression” value ([4]; time 30 s) was −15%, the “% reduction in the bitterness impression” value ([4]; time 30 s) was −38%* and the “% Reduction in the astringency impression” value ([4]; time 50 s) was −20%. For the same compound, the “% reduction in the bitterness impression” value ([4]; time 50 s) was −33%*, the “% Reduction in the astringency impression” value ([4]; time 70 s) was −23% and the “% reduction in the bitterness impression” value ([4]; time 70 s) was −28%. For the same compound, the “Reduction in the bitterness impression” value (100 ppm naringin) was 15.1%, the “Bitterness impression … with test substance” value (100 ppm naringin) was 4.9 ± 2.38 and the “Reduction in the bitterness impression” value (300 ppm theobromine) was 24.7%. For the same compound, the “Bitterness impression … with test substance” value (300 ppm theobromine) was 3.4 ± 1.49.
